Experimental data reported in the supplement of paper PMC11451515.

Test system: SEM cells
Test: cell viability relative to DMSO control; higher = less cytotoxic
Conditions: 48 h
How it was run: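 Viability is expressed as a percentage of DMSO wells within each plate, and cell-free wells serve as background. Seeding densities in the 1536-well plates (5 μl) were 500 cells/well for NOMO1 or SEM leukemia cells and 1000 cells/well for P12-Ichikawa. Each line was adapted for at least four passages in each medium. Library compounds in DMSO were pin-dosed at 47 μM to 0.79 nM (11 points, threefold), and CellTiter-Glo One luminescence was read after 48 h at 37°C.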

[1] = HPLM + 10% dialyzed FBS, 0.000781 µM
[2] = HPLM + 10% dialyzed FBS, 0.00234 µM
[3] = HPLM + 10% dialyzed FBS, 0.00702 µM
[4] = HPLM + 10% dialyzed FBS, 0.0211 µM
[5] = HPLM + 10% dialyzed FBS, 0.0632 µM
[6] = HPLM + 10% dialyzed FBS, 0.19 µM
[7] = HPLM + 10% dialyzed FBS, 0.569 µM
[8] = HPLM + 10% dialyzed FBS, 1.71 µM
[9] = HPLM + 10% dialyzed FBS, 5.12 µM
[10] = HPLM + 10% dialyzed FBS, 15.4 µM
[11] = HPLM + 10% dialyzed FBS, 46.1 µM
[12] = RPMI 5 mM glucose + 10% FBS, 0.000781 µM
[13] = RPMI 5 mM glucose + 10% FBS, 0.00234 µM
[14] = RPMI 5 mM glucose + 10% FBS, 0.00702 µM
[15] = RPMI 5 mM glucose + 10% FBS, 0.0211 µM
[16] = RPMI 5 mM glucose + 10% FBS, 0.0632 µM
[17] = RPMI 5 mM glucose + 10% FBS, 0.19 µM
[18] = RPMI 5 mM glucose + 10% FBS, 0.569 µM
[19] = RPMI 5 mM glucose + 10% FBS, 1.71 µM
[20] = RPMI 5 mM glucose + 10% FBS, 5.12 µM
[21] = RPMI 5 mM glucose + 10% FBS, 15.4 µM
[22] = RPMI 5 mM glucose + 10% FBS, 46.1 µM
[23] = RPMI 5 mM glucose + 10% dialyzed FBS, 0.000781 µM
[24] = RPMI 5 mM glucose + 10% dialyzed FBS, 0.00234 µM
[25] = RPMI 5 mM glucose + 10% dialyzed FBS, 0.00702 µM
[26] = RPMI 5 mM glucose + 10% dialyzed FBS, 0.0211 µM
[27] = RPMI 5 mM glucose + 10% dialyzed FBS, 0.0632 µM
[28] = RPMI 5 mM glucose + 10% dialyzed FBS, 0.19 µM
[29] = RPMI 5 mM glucose + 10% dialyzed FBS, 0.569 µM
[30] = RPMI 5 mM glucose + 10% dialyzed FBS, 1.71 µM
[31] = RPMI 5 mM glucose + 10% dialyzed FBS, 5.12 µM
[32] = RPMI 5 mM glucose + 10% dialyzed FBS, 15.4 µM
[33] = RPMI 5 mM glucose + 10% dialyzed FBS, 46.1 µM

SMILES | cell viability [1] [%] | cell viability [2] [%] | cell viability [3] [%] | cell viability [4] [%] | cell viability [5] [%] | cell viability [6] [%] | cell viability [7] [%] | cell viability [8] [%] | cell viability [9] [%] | cell viability [10] [%] | cell viability [11] [%] | cell viability [12] [%] | cell viability [13] [%] | cell viability [14] [%] | cell viability [15] [%] | cell viability [16] [%] | cell viability [17] [%] | cell viability [18] [%] | cell viability [19] [%] | cell viability [20] [%] | cell viability [21] [%] | cell viability [22] [%] | cell viability [23] [%] | cell viability [24] [%] | cell viability [25] [%] | cell viability [26] [%] | cell viability [27] [%] | cell viability [28] [%] | cell viability [29] [%] | cell viability [30] [%] | cell viability [31] [%] | cell viability [32] [%] | cell viability [33] [%]
O=C(Nc1ccncc1)C(=O)c1cn(Cc2ccc(Cl)cc2)c2ccccc12 | 92.5 | 94 | 91.7 | 81.9 | 54.8 | 31.5 | 29.4 | 24.7 | 25.7 | 28.5 | 26.3 | 130 | 105 | 122 | 114 | 57.7 | 33 | 17.8 | 18.2 | 18.7 | 22.2 | 28 | 107 | 88.4 | 95.3 | 75.9 | 58.5 | 27.7 | 23.9 | 20.9 | 26.6 | 25.3 | 30.5
Cc1n[nH]c(C)c1Cc1sc2c(c1C(=O)N1C[C@H](O)CO1)c(=O)n(C)c(=O)n2CC(C)C | 81.6 | 102 | 90.5 | 105 | 80.3 | 79.3 | 67.7 | 68 | 62.2 | 58.4 | 43.4 | 110 | 111 | 116 | 122 | 98.2 | 106 | 89.1 | 85.2 | 87.9 | 85.9 | 63.5 | 97.8 | 105 | 108 | 103 | 96.2 | 88.8 | 103 | 93.1 | 87.4 | 85 | 74.8
O=C(O)CCc1ccc(NCc2cccc(Oc3ccccc3)c2)cc1 | 62.4 | 93.7 | 114 | 103 | 112 | 108 | 98.7 | 122 | 121 | 109 | 123 | 74.2 | 106 | 108 | 90.6 | 124 | 105 | 99.3 | 118 | 110 | 120 | 95.2 | 71.6 | 106 | 126 | 116 | 109 | 112 | 121 | 115 | 127 | 131 | 128
CN1\C(=C(O)/C2=C(C=C(Cl)S2)[S+]1([O-])=O)C(=O)NC3=NC=CC=C3 | 124 | 130 | 119 | 24.6 | 127 | 114 | 114 | 114 | 112 | 101 | 106 | 91.4 | 88 | 82.7 | 14.3 | 88.3 | 88.1 | 68.8 | 85.4 | 99.6 | 87.5 | 74.8 | 125 | 123 | 118 | 25.3 | 123 | 134 | 104 | 102 | 103 | 111 | 87.7
O=C(Nc1cccc2c(=O)cc(-c3nnn[nH]3)oc12)c1ccc(OCCCCc2ccccc2)cc1 | 68.3 | 78.5 | 85.2 | 91.3 | 84.6 | 91.2 | 93 | 96 | 93.8 | 21.4 | 49.2 | 76.6 | 97.5 | 87 | 86.6 | 92.1 | 90.7 | 91.9 | 86.6 | 88.4 | 17.2 | 13.5 | 70.8 | 90.5 | 105 | 96.2 | 99.6 | 92.6 | 102 | 79.9 | 92.8 | 19.2 | 33.2
CCCCC(F)(F)[C@@]1(O)CC[C@H]2[C@@H](CC(=O)[C@@H]2CCCCCCC(=O)O)O1 | 120 | 124 | 123 | 121 | 112 | 110 | 118 | 116 | 101 | 91.6 | 98.6 | – | – | – | – | – | – | – | – | – | – | – | – | – | – | – | – | – | – | – | – | – | –
COC(=O)[C@@H]1CC2=CC(=O)CC[C@]2(C)[C@@]23O[C@@H]2C[C@@]2(C)[C@@H](CC[C@@]24CCC(=O)O4)[C@H]13 | 87.9 | 88.3 | 94.7 | 100 | 96.1 | 121 | 113 | 115 | 115 | 102 | 111 | 105 | 108 | 113 | 98.1 | 116 | 115 | 97.4 | 114 | 122 | 106 | 121 | 87.5 | 93 | 112 | 101 | 113 | 107 | 119 | 116 | 122 | 130 | 125
c1cc(N[C@@H]2CCNC2)nc(-c2cnc3ccc(-c4cn[nH]c4)cn23)c1 | 105 | 109 | 136 | 134 | 106 | 98.6 | 81.5 | 78.8 | 74 | 76.5 | 67.2 | – | – | – | – | – | – | – | – | – | – | – | – | – | – | – | – | – | – | – | – | – | –
CNCCN(C)Cc1c[nH]nc1-c1ccc(O[C@H]2C[C@H](OCCC3CCOCC3)C2)cc1 | 98.5 | 96.9 | 116 | 110 | 112 | 122 | 116 | 112 | 103 | 60.6 | 35.9 | 101 | 103 | 147 | 117 | 115 | 120 | 107 | 130 | 45.2 | 45.1 | 24.7 | 130 | 111 | 125 | 135 | 156 | 118 | 145 | 156 | 112 | 73.1 | 29.4
